Laboratory results from PubChem BioAssay (NCI).
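Exposure lasted 48 hours, with cells grown in 96-well plates and compounds tested at five concentrations. GI50 = concentration required for 50% inhibition of growth. TGI marks complete inhibition of growth.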

Columns and labels:
Test in all cases: inhibition of tumour cell growth, NCI panel, 48 h
NCI-H522 lung = test system: NCI-H522 lung
HT29 colon = test system: HT29 colon
COLO 205 colon = test system: COLO 205 colon
HL-60(TB) leukemia = test system: HL-60(TB) leukemia
MDA-MB-231 breast = test system: MDA-MB-231 breast
SNB-75 CNS = test system: SNB-75 CNS
UACC-62 melanoma = test system: UACC-62 melanoma
UACC-257 melanoma = test system: UACC-257 melanoma
SW-620 colon = test system: SW-620 colon
HS 578T breast = test system: HS 578T breast
RPMI-8226 leukemia = test system: RPMI-8226 leukemia
HCC-2998 colon = test system: HCC-2998 colon
MCF7 breast = test system: MCF7 breast
SF-539 CNS = test system: SF-539 CNS
IGROV1 ovarian = test system: IGROV1 ovarian
KM12 colon = test system: KM12 colon
MDA-MB-435 = test system: MDA-MB-435
RXF 393 renal = test system: RXF 393 renal
SK-MEL-28 melanoma = test system: SK-MEL-28 melanoma
K-562 leukemia = test system: K-562 leukemia
TK-10 renal = test system: TK-10 renal
HCT-15 colon = test system: HCT-15 colon
SR leukemia = test system: SR leukemia
CCRF-CEM leukemia = test system: CCRF-CEM leukemia
UO-31 renal = test system: UO-31 renal
NCI-H460 lung = test system: NCI-H460 lung
T-47D breast = test system: T-47D breast
NCI/ADR-RES ovarian = test system: NCI/ADR-RES ovarian
HCT-116 colon = test system: HCT-116 colon
OVCAR-5 ovarian = test system: OVCAR-5 ovarian
ACHN renal = test system: ACHN renal
OVCAR-3 ovarian = test system: OVCAR-3 ovarian
NCI-H226 lung = test system: NCI-H226 lung
SN12C renal = test system: SN12C renal
NCI-H23 lung = test system: NCI-H23 lung
OVCAR-8 ovarian = test system: OVCAR-8 ovarian
M14 melanoma = test system: M14 melanoma
HOP-62 NSCLC = test system: HOP-62 NSCLC
SK-MEL-5 melanoma = test system: SK-MEL-5 melanoma
BT-549 breast = test system: BT-549 breast
MALME-3M melanoma = test system: MALME-3M melanoma
PC-3 prostate = test system: PC-3 prostate
SK-OV-3 ovarian = test system: SK-OV-3 ovarian
OVCAR-4 ovarian = test system: OVCAR-4 ovarian
CAKI-1 renal = test system: CAKI-1 renal
A549 NSCLC = test system: A549 NSCLC
MOLT-4 leukemia = test system: MOLT-4 leukemia
A498 renal = test system: A498 renal
SF-295 CNS = test system: SF-295 CNS
SF-268 CNS = test system: SF-268 CNS
DU-145 prostate = test system: DU-145 prostate
U251 CNS = test system: U251 CNS
786-0 renal = test system: 786-0 renal
SNB-19 CNS = test system: SNB-19 CNS

Q: What does the source list for `COc1ccc(CCc2nc3cc(-c4c(C)noc4C)ccc3n2CCN2CCOCC2)cc1`?
A: GI50 (NCI-H522 lung): 12.4 µM; TGI (NCI-H522 lung): 69.4 µM; GI50 (HT29 colon): 13.7 µM; TGI (HT29 colon): > 100 µM; GI50 (COLO 205 colon): 12.7 µM; TGI (COLO 205 colon): > 100 µM; GI50 (HL-60(TB) leukemia): 10.4 µM; TGI (HL-60(TB) leukemia): > 100 µM; GI50 (MDA-MB-231 breast): 28.6 µM; TGI (MDA-MB-231 breast): > 100 µM; GI50 (SNB-75 CNS): 2.47 µM; TGI (SNB-75 CNS): > 100 µM; GI50 (UACC-62 melanoma): 11.1 µM; TGI (UACC-62 melanoma): > 100 µM; GI50 (UACC-257 melanoma): 13.6 µM; TGI (UACC-257 melanoma): > 100 µM; GI50 (SW-620 colon): 58.1 µM; TGI (SW-620 colon): > 100 µM; GI50 (HS 578T breast): 9.16 µM; TGI (HS 578T breast): > 100 µM; GI50 (RPMI-8226 leukemia): 6.12 µM; TGI (RPMI-8226 leukemia): 49.4 µM; GI50 (HCC-2998 colon): 19.9 µM; TGI (HCC-2998 colon): 97.5 µM; GI50 (MCF7 breast): 4.32 µM; TGI (MCF7 breast): > 100 µM; GI50 (SF-539 CNS): 34.6 µM; TGI (SF-539 CNS): > 100 µM; GI50 (IGROV1 ovarian): 22.9 µM; TGI (IGROV1 ovarian): > 100 µM; GI50 (KM12 colon): 17.5 µM; TGI (KM12 colon): > 100 µM; GI50 (MDA-MB-435): 14.9 µM; TGI (MDA-MB-435): > 100 µM; GI50 (RXF 393 renal): 18.7 µM; TGI (RXF 393 renal): 82.4 µM; GI50 (SK-MEL-28 melanoma): 39.5 µM; TGI (SK-MEL-28 melanoma): > 100 µM; GI50 (K-562 leukemia): 19.9 µM; TGI (K-562 leukemia): > 100 µM; GI50 (TK-10 renal): 10.1 µM; TGI (TK-10 renal): > 100 µM; GI50 (HCT-15 colon): 12.5 µM; TGI (HCT-15 colon): > 100 µM; GI50 (SR leukemia): 7.01 µM; TGI (SR leukemia): > 100 µM; GI50 (CCRF-CEM leukemia): 26.9 µM; TGI (CCRF-CEM leukemia): > 100 µM; GI50 (UO-31 renal): 2.49 µM; TGI (UO-31 renal): > 100 µM; GI50 (NCI-H460 lung): 65.1 µM; TGI (NCI-H460 lung): > 100 µM; GI50 (T-47D breast): 16.1 µM; TGI (T-47D breast): > 100 µM; GI50 (NCI/ADR-RES ovarian): 27.9 µM; TGI (NCI/ADR-RES ovarian): > 100 µM; GI50 (HCT-116 colon): 29.4 µM; TGI (HCT-116 colon): > 100 µM; GI50 (OVCAR-5 ovarian): 71.8 µM; TGI (OVCAR-5 ovarian): > 100 µM; GI50 (ACHN renal): 25.9 µM; TGI (ACHN renal): > 100 µM; GI50 (OVCAR-3 ovarian): 20.3 µM; TGI (OVCAR-3 ovarian): 59.8 µM; GI50 (NCI-H226 lung): 31.1 µM; TGI (NCI-H226 lung): > 100 µM; GI50 (SN12C renal): 34.9 µM; TGI (SN12C renal): > 100 µM; GI50 (NCI-H23 lung): 45.3 µM; TGI (NCI-H23 lung): > 100 µM; GI50 (OVCAR-8 ovarian): 35.9 µM; TGI (OVCAR-8 ovarian): > 100 µM; GI50 (M14 melanoma): 21.6 µM; TGI (M14 melanoma): > 100 µM; GI50 (HOP-62 NSCLC): 44.6 µM; TGI (HOP-62 NSCLC): > 100 µM; GI50 (SK-MEL-5 melanoma): 13.4 µM; TGI (SK-MEL-5 melanoma): 43.8 µM; GI50 (BT-549 breast): 40.5 µM; TGI (BT-549 breast): > 100 µM; GI50 (MALME-3M melanoma): 6.64 µM; TGI (MALME-3M melanoma): > 100 µM; GI50 (PC-3 prostate): 16.3 µM; TGI (PC-3 prostate): > 100 µM; GI50 (SK-OV-3 ovarian): 26 µM; TGI (SK-OV-3 ovarian): > 100 µM; GI50 (OVCAR-4 ovarian): 5.28 µM; TGI (OVCAR-4 ovarian): > 100 µM; GI50 (CAKI-1 renal): 7.94 µM; TGI (CAKI-1 renal): > 100 µM; GI50 (A549 NSCLC): 45 µM; TGI (A549 NSCLC): > 100 µM; GI50 (MOLT-4 leukemia): 34.5 µM; TGI (MOLT-4 leukemia): > 100 µM; GI50 (A498 renal): 10.1 µM; TGI (A498 renal): 32.8 µM; GI50 (SF-295 CNS): 23 µM; TGI (SF-295 CNS): > 100 µM; GI50 (SF-268 CNS): 41.6 µM; TGI (SF-268 CNS): > 100 µM; GI50 (DU-145 prostate): 86.2 µM; TGI (DU-145 prostate): > 100 µM; GI50 (U251 CNS): 38.7 µM; TGI (U251 CNS): > 100 µM; GI50 (786-0 renal): 24.4 µM; TGI (786-0 renal): > 100 µM; GI50 (SNB-19 CNS): 35.5 µM; TGI (SNB-19 CNS): > 100 µM
